Common to all, as to type: in vivo
For one series, the system named is Myzus persicae. Briefly: Myzus persicae (green peach aphid) feeding/contact activity. As to conditions: 144 h. The procedure:
Myzus persicae (Green Peach Aphid):Feeding/Contact Activity
Sunflower leaf discs were placed onto agar in a 24-well microtiter plate and sprayed with aqueous test solutions prepared from 10,000 ppm DMSO stock solutions. After drying, the leaf discs were infested with an aphid population of mixed ages. The samples were assessed for mortality 6 days after infestation.

For series [1], the system named is Plutella xylostella. Briefly: Plutella xylostella (diamond back moth), artificial diet. As to conditions: 120 h, read-out: effect in at least one of the two categories (mortality or growth inhibition); for percent effect (mortality or growth inhibition) at 200 ppm: application rate 200 ppm, L2 larvae, 5 days after infestation. The procedure: Plutella xylostella (Diamond Back Moth)
24-well microtiter plates with artificial diet were treated with aqueous test solutions prepared from 10,000 ppm DMSO stock solutions by pipetting. After drying, the plates were infested with L2 larvae (10 to 15 per well). The samples were assessed for mortality and growth inhibition in comparison to untreated samples 5 days after infestation.

In series [2] the test system is Spodoptera littoralis. Briefly: Spodoptera littoralis (Egyptian cotton leaf worm), cotton leaf discs. As to conditions: foliar, 72 h; for percent control (mortality, anti-feedant effect or growth inhibition) at 200 ppm: application rate 200 ppm, L1 larvae, 3 days after infestation. On the procedure:
Spodoptera littoralis (Egyptian Cotton Leaf Worm)
Cotton leaf discs were placed onto agar in 24-well microtiter plates and sprayed with aqueous test solutions prepared from 10,000 ppm DMSO stock solutions. After drying the leaf discs were infested with five L1 larvae. The samples were assessed for mortality, anti-feeding effect, and growth inhibition in comparison to untreated samples 3 days after infestation. Control of Spodoptera littoralis by a test sample is given when at least one of the categories mortality, anti-feedant effect, and growth inhibition is higher than the untreated sample.

For the next series, the system named is Euschistus heros. Briefly: Euschistus heros (neotropical brown stink bug), soybean leaves sprayed. The settings on record: 120 h, read-out: effect in at least one of the two categories (mortality or growth inhibition); for percent effect (mortality or growth inhibition) at 200 ppm: application rate 200 ppm, N2 nymphs, 5 days after infestation. On the procedure: Euschistus heros (Neotropical Brown Stink Bug)
Soybean leaves on agar in 24-well microtiter plates were sprayed with aqueous test solutions prepared from 10,000 ppm DMSO stock solutions. After drying the leaves were infested with N2 nymphs. The samples were assessed for mortality and growth inhibition in comparison to untreated samples 5 days after infestation.

The next series relates to Diabrotica balteata. Briefly: Diabrotica balteata (corn root worm), maize sprouts sprayed. The settings on record: 96 h, read-out: effect in at least one of the two categories (mortality or growth inhibition); for percent effect (mortality or growth inhibition) at 200 ppm: application rate 200 ppm, L2 larvae, 4 days after infestation. On the procedure: Diabrotica balteata (Corn Root Worm)
Maize sprouts placed onto an agar layer in 24-well microtiter plates were treated with aqueous test solutions prepared from 10,000 ppm DMSO stock solutions by spraying. After drying, the plates were infested with L2 larvae (6 to 10 per well). The samples were assessed for mortality and growth inhibition in comparison to untreated samples 4 days after infestation.

The subject of series [3] is Tetranychus urticae. Briefly: Tetranychus urticae (two-spotted spider mite) feeding/contact activity. The settings on record: 192 h, read-out: mortality on mixed population (mobile stages). The procedure:
(§1) Tetranychus urticae (Two-Spotted Spider Mite):Feeding/Contact Activity
Bean leaf discs on agar in 24-well microtiter plates were sprayed with aqueous test solutions prepared from 10,000 ppm DMSO stock solutions. After drying the leaf discs were infested with a mite population of mixed ages. The samples were assessed for mortality on mixed population (mobile stages) 8 days after infestation.

The test system of series [4] is Thrips tabaci. Briefly: Thrips tabaci (onion thrips) feeding/contact activity. The settings on record: 144 h. The procedure: (§2) Thrips tabaci (Onion Thrips) Feeding/Contact Activity
Sunflower leaf discs were placed on agar in 24-well microtiter plates and sprayed with aqueous test solutions prepared from 10,000 ppm DMSO stock solutions. After drying the leaf discs were infested with a thrips population of mixed ages. The samples were assessed for mortality 6 days after infestation.

In series [5] the test system is Spodoptera littoralis. Briefly: Comparative Example C2: Spodoptera littoralis feeding/contact activity. The settings on record: 3 days after infestation. On the procedure: (§3) Compounds of the invention were tested alongside a number of compounds from WO 2013/026931.
Spodoptera littoralis (Egyptian Cotton Leaf Worm):Feeding/Contact Activity
Cotton leaf discs were placed onto agar in 24-well microtiter plates and sprayed with aqueous test solutions prepared from 10,000 ppm DMSO stock solutions. After drying the leaf discs were infested with five L1 larvae. The samples were assessed for mortality (%) 3 days after infestation at the various application rates.

Series [6] concerns Plutella xylostella. Briefly: Comparative Example C1: Plutella xylostella feeding/contact activity. The procedure: as §3
Plutella xylostella (Diamond Back Moth):Feeding/Contact Activity
24-well microtiter plates with artificial diet were treated with aqueous test solutions prepared from 10,000 ppm DMSO stock solutions by pipetting. After drying, the plates were infested with L2 larvae (10 to 15 per well). The samples were assessed for mortality (%) 5 days after infestation at the various application rates

Series [7] deals with Tetranychus urticae. The experiment in a line: Comparative Example C3: Tetranychus urticae feeding/contact activity. The settings on record: mobile stages, 8 days after infestation. On the procedure:
as §3, §1
Bean leaf discs on agar in 24-well microtiter plates were sprayed with aqueous test solutions prepared from 10,000 ppm DMSO stock solutions. After drying the leaf discs were infested with a mite population of mixed ages. The samples were assessed for mortality on mixed population (%) (mobile stages) 8 days after infestation at the various application rates.

Series [8] deals with Thrips tabaci. Briefly: Comparative Example C4: Thrips tabaci feeding/contact activity. The settings on record: 6 days after infestation. On the procedure:
as §3, §2
Sunflower leaf discs were placed on agar in 24-well microtiter plates and sprayed with aqueous test solutions prepared from 10,000 ppm DMSO stock solutions. After drying the leaf discs were infested with a thrips population of mixed ages. The samples were assessed for mortality (%) 6 days after infestation at the various application rates.

Where [9] appears, read: application rate 200 ppm, mixed ages, 6 days after infestation, read-out: mortality.
Where [10] appears, read: application rate 200 ppm, 8 days after infestation.

We go through six compounds from patent publication US11001577B2, “Pesticidally active azetidine sulfones amide isoxazoline derivatives” (SYNGENTA PARTICIPATIONS AG, priority 2016, dated 2021).

Where two headings read alike, the source gives them in different places.

Consider `Cc1cc(C2=NO[C@@](c3cc(Cl)cc(Cl)c3)(C(F)(F)F)C2)ccc1C(=O)NC1CN(S(=O)(=O)N(C)C)C1` [Compound A03, 4-[(5S)-5-(3,5-dichlorophenyl)-5-(trifluoromethyl)-4H-isoxazol-3-yl]-N-[1-(dimethylsulfamoyl)azetidin-3-yl]-2-methyl-benzamide], for which the mortality at 200 ppm in the series with Myzus persicae (setting [9]), in the series on Tetranychus urticae [3] (setting [10]) and in the series with Thrips tabaci [4] (setting [9]) was ≥ 80% throughout. Also, the percent effect (mortality or growth inhibition) at 200 ppm in the series with Plutella xylostella [1], in the series on Euschistus heros and in the series with Diabrotica balteata was ≥ 80% each time. In addition, the percent control (mortality, anti-feedant effect or growth inhibition) at 200 ppm with Spodoptera littoralis [2] is ≥ 80%.
With `Cc1cc(C2=NOC(c3cc(Cl)cc(Cl)c3)(C(F)(F)F)C2)ccc1C(=O)NC1CN(S(=O)(=O)F)C1` (stereo not shown) [Compound A06], the “Spodoptera littoralis larval average mortality (%)” value in the series with Spodoptera littoralis [5] (application rate 0.195 ppm), in the series with Spodoptera littoralis [5] (application rate 0.781 ppm), in the series with Spodoptera littoralis [5] (application rate 3.12 ppm), in the series with Spodoptera littoralis [5] (application rate 12.5 ppm), in the series with Spodoptera littoralis [5] (application rate 50 ppm) and with Spodoptera littoralis [5] (application rate 200 ppm) was 100% throughout. Moreover, the “Plutella xylostella larval average mortality (%)” value in the series with Plutella xylostella [6] (application rate 0.195 ppm) is listed as 80%; in the series with Plutella xylostella [6] (application rate 0.781 ppm) it was 100%; in the series with Plutella xylostella [6] (application rate 3.12 ppm), 100%; with Plutella xylostella [6] (application rate 12.5 ppm), 100%; in the series with Plutella xylostella [6] (application rate 50 ppm), 100%; with Plutella xylostella [6] (application rate 200 ppm), 100%. Besides, the “Tetranychus urticae mixed population average mortality (%)” value in the series with Tetranychus urticae [7] (application rate 0.195 ppm) is reported as 0%; in the series with Tetranychus urticae [7] (application rate 0.781 ppm), 100%; with Tetranychus urticae [7] (application rate 3.12 ppm) it was 100%; in the series with Tetranychus urticae [7] (application rate 12.5 ppm), 100%; with Tetranychus urticae [7] (application rate 50 ppm), 100%; in the series on Tetranychus urticae [7] (application rate 200 ppm), 100%. The “Thrips tabaci mixed population average mortality (%)” value with Thrips tabaci [8] (application rate 0.195 ppm) was determined as 0%; in the series on Thrips tabaci [8] (application rate 0.781 ppm) it was 100%; in the series on Thrips tabaci [8] (application rate 3.12 ppm), 100%; with Thrips tabaci [8] (application rate 12.5 ppm), 100%; in the series with Thrips tabaci [8] (application rate 50 ppm), 100%; in the series with Thrips tabaci [8] (application rate 200 ppm) it was 100%.
As for `Cc1cc(C2=NO[C@@](c3cc(Cl)cc(C(F)(F)F)c3)(C(F)(F)F)C2)ccc1C(=O)NC1CN(S(=O)(=O)F)C1` [Compound A10, 3-[[4-[(5S)-5-[3-chloro-5-(trifluoromethyl)phenyl]-5-(trifluoromethyl)-4H-isoxazol-3-yl]-2-methyl-benzoyl]amino]azetidine-1-sulfonyl fluoride], the mortality at 200 ppm is ≥ 80% with Myzus persicae; ≥ 80% in the series on Spodoptera littoralis [2] (read-out: control (mortality, anti-feedant effect, growth inhibition)); ≥ 80% in the series on Tetranychus urticae [3]; ≥ 80% in the series on Thrips tabaci [4]. In addition, the percent control (mortality or growth inhibition) at 200 ppm in the series on Plutella xylostella [1], in the series on Euschistus heros and with Diabrotica balteata was ≥ 80% each time.
On to `Cc1cc(C2=NO[C@@](c3cc(Cl)c(F)c(Cl)c3)(C(F)(F)F)C2)ccc1C(=O)NC1CN(S(N)(=O)=O)C1` [Compound A12, 4-[(5S)-5-(3,5-dichloro-4-fluoro-phenyl)-5-(trifluoromethyl)-4H-isoxazol-3-yl]-2-methyl-N-(1-sulfamoylazetidin-3-yl)benzamide], for which the mortality at 200 ppm in the series on Myzus persicae (setting [9]), in the series on Tetranychus urticae [3] (setting [10]) and in the series on Thrips tabaci [4] (setting [9]) was ≥ 80% each time. Moreover, the percent effect (mortality or growth inhibition) at 200 ppm in the series with Plutella xylostella [1], with Euschistus heros and in the series on Diabrotica balteata was ≥ 80% each time. For the same compound, the percent control (mortality, anti-feedant effect or growth inhibition) at 200 ppm in the series on Spodoptera littoralis [2] was ≥ 80%.
In the case of `Cc1cc(C2=NO[C@@](c3cc(Cl)c(F)c(Cl)c3)(C(F)(F)F)C2)ccc1C(=O)NC1CN(S(=O)(=O)N(CC(F)(F)F)CC(F)(F)F)C1` [Compound A13, N-[1-[bis(2,2,2-trifluoroethyl)sulfamoyl]azetidin-3-yl]-4-[(5S)-5-(3,5-dichloro-4-fluoro-phenyl)-5-(trifluoromethyl)-4H-isoxazol-3-yl]-2-methyl-benzamide], the mortality at 200 ppm with Myzus persicae (setting [9]), in the series on Tetranychus urticae [3] (setting [10]) and in the series on Thrips tabaci [4] (setting [9]) was ≥ 80% throughout. The percent effect (mortality or growth inhibition) at 200 ppm in the series on Plutella xylostella [1] and in the series with Diabrotica balteata was ≥ 80% each time. The percent control (mortality, anti-feedant effect or growth inhibition) at 200 ppm in the series on Spodoptera littoralis [2] was ≥ 80%.
On to `Cc1cc(C2=NO[C@@](c3cc(Cl)c(F)c(Cl)c3)(C(F)(F)F)C2)ccc1C(=O)NC1CN(S(=O)(=O)NCC(F)(F)F)C1` [Compound A14, 4-[(5S)-5-(3,5-dichloro-4-fluoro-phenyl)-5-(trifluoromethyl)-4H-isoxazol-3-yl]-2-methyl-N-[1-(2,2,2-trifluoroethylsulfamoyl)azetidin-3-yl]benzamide], for which the mortality at 200 ppm with Myzus persicae (setting [9]), in the series with Tetranychus urticae [3] (setting [10]) and in the series on Thrips tabaci [4] (setting [9]) was ≥ 80% each time. In addition, the percent effect (mortality or growth inhibition) at 200 ppm in the series with Plutella xylostella [1], in the series on Euschistus heros and with Diabrotica balteata was ≥ 80% throughout. In addition, the percent control (mortality, anti-feedant effect or growth inhibition) at 200 ppm in the series on Spodoptera littoralis [2] was ≥ 80%.
